Patent US11161837B2, “Benzofuran derivatives for the treatment of hepatitis C” (BRISTOL-MYERS SQUIBB COMPANY, priority 2016, dated 2021)

Tests used:
HCV [1] = settings: cited from earlier work
HCV [2] = settings: combination therapy; cited from earlier work
[3] = system: genotype 1b (Con-1) HCV replicon in Huh-7 cells; experiment: HCV replicon luciferase assay; assay type: cell-based; settings: 1b replicon, Huh-7, Renilla luciferase, 3 days incubation
Procedure, shortened: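 Huh-7 cells carrying Con-1 genotype 1b replicon with Renilla luciferase reporter seeded onto titrated compound in DMEM, 4% FBS, 0.5% DMSO, 3 days at 37 °C. Luciferase read with EnduRen substrate (7.5 μM final) after ≥1 h; EC50 by four-parameter logistic fit.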

[4] = target: T1, NS5B proteins of HCV genotype 1b (Con1) (Hepatitis C virus genotype 1b, UniProt Q9WMX2); experiment: HCV NS5B RdRp enzyme assay; assay type: biochemical; settings: 1b enzyme
T1 construct: Each untagged protein was expressed with an 18 amino acid C-terminal truncation to enhance the solubility; made in house; host or cells: E. coli BL21(DE3), pET21a
T1 sequence (Q9WMX2 2420-2992): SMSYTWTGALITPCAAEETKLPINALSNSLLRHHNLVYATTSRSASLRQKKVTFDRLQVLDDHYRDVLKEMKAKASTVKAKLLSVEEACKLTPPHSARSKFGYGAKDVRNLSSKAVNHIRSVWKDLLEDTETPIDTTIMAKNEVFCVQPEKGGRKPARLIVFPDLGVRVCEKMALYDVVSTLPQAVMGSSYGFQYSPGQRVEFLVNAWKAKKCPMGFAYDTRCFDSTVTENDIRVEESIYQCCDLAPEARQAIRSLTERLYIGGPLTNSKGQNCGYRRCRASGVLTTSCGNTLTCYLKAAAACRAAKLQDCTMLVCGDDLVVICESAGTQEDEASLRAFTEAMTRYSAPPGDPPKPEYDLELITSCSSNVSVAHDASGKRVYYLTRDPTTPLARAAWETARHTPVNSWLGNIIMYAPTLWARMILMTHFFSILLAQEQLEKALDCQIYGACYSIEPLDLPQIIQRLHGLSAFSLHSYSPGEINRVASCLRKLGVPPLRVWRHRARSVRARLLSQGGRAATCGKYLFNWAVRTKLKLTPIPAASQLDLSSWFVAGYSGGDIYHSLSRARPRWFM
Procedure, shortened: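 Untagged NS5B (C-terminal 18-aa truncation) in an on-bead scintillation-proximity format: poly A template (0.36 nM), biotin-dT12 primer (15 nM), 0.29 μM ³H-UTP, 7 nM enzyme, 20 mM Hepes pH 7.5, 2.5 mM MgCl2. Reactions ran 4–24 h at 30 °C (24 h runs with 24 h enzyme–inhibitor preincubation), stopped with EDTA. IC50 from ten concentrations, four-parameter logistic fit.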

| Molecule | EC50 ([3]; Hepatitis C virus, Huh-7, 72 h) | IC50 [4] | EC50 [3] | further results |
| --- | --- | --- | --- | --- |
| CNC(=O)c1c(-c2ccc(F)cc2)oc2cc(N(CCO)S(C)(=O)=O)c(C3CC3)cc12 [HCV-796] |  |  |  | hepatic toxicity (HCV [1]; extended dosing of the combination regimens): hepatic toxicity observed; HCV RNA levels in patients (HCV [1]; patients, transient as single agent, more robust with interferon and ribavirin): reduce HCV RNA levels |
| alpha-interferon and ribavirin |  |  |  | sustained efficacy, share of patients (HCV [2]): 40% |
| CNC(=O)c1c(-c2ccc(F)cc2)oc2cc(NCC(F)(F)F)c(-c3ccc(OC)c(C(=O)NC4(c5ncccn5)CC(OC(F)F)C4)c3)cc12 (single isomer, unassigned) [Example 64a] | 4.23 nM | 3.3 nM |  |  |
| CNC(=O)c1c(-c2ccc(F)cc2)oc2ccc(-c3cc(C(=O)NC4(c5ncccn5)CC(F)C4)ccc3C)c(F)c12 (centres unmarked) [Example 16, 4-Fluoro-5-(5-(3-fluoro-1-(pyrimidin-2-yl)cyclobutylcarbamoyl)-2-methylphenyl)-2-(4-fluorophenyl)-N-methylbenzofuran-3-carboxamide] | 6.62 nM | 30 nM |  |  |
| CNC(=O)c1c(-c2ccc(F)cc2)oc2cc(CCC(F)(F)F)c(-c3ccc(F)c(C(=O)NC4(c5ncccn5)CC(OC(F)(F)F)C4)c3)cc12 (single isomer, unassigned) [Example 49b, 5-(4-Fluoro-3-((1-(pyrimidin-2-yl)-3-(trifluoromethoxy)cyclobutyl)carbamoyl)phenyl)-2-(4-fluorophenyl)-N-methyl-6-(3,3,3-trifluoropropyl)benzofuran-3-carboxamide] |  | 10 nM | 20 nM |  |
| CNC(=O)c1c(-c2ccc(F)cc2)oc2ccc(-c3cc(C(=O)NC4(c5ncccn5)CC(O)C4)ccc3C)c(F)c12 (single isomer, unassigned) [Example 5b, 4-Fluoro-2-(4-fluorophenyl)-5-(5-((3-hydroxy-1-(pyrimidin-2-yl)cyclobutyl)carbamoyl)-2-methylphenyl)-N-methylbenzofuran-3-carboxamide] |  | 230 nM | 1190 nM |  |
